Measured values from patent US20230219986A1, “NOVEL AMINOPYRIMIDINE EGFR INHIBITOR” (QILU PHARMACEUTICAL CO., LTD., priority 2020, published 2023).

Assays:
[1] = tested on: EGFR wild-type cell line A431; assay: Cell proliferation inhibition experiment (CellTiter-Glo), A431; assay type: cell-based; conditions: Homo sapiens, A-431, 72 h, A431 cells, Cell Titer-Glo, read-out: A431 EGFR WT IC50
Method in brief: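 A431 cells, 800 per well, were cultured 24 h and then exposed to serially diluted compound (0.1% DMSO final) for 72 h at 37° C., 5% CO2.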

[2] = target: T1, L858R/T790M/C797S triple mutant EGFR (Homo sapiens, UniProt P00533, C797S/L858R/T790M); assay: Enzymology experiment in vitro (HTRF/FRET kinase activity), L858R/T790M/C797S triple mutant EGFR; assay type: biochemical; conditions: HTRF KinEASE-TK, read-out: EGFR (L858R/T790M/C797S) IC50
T1 construct: purchased Signalchem
T1 sequence (P00533 25-1210 T790M/C797S/L858R): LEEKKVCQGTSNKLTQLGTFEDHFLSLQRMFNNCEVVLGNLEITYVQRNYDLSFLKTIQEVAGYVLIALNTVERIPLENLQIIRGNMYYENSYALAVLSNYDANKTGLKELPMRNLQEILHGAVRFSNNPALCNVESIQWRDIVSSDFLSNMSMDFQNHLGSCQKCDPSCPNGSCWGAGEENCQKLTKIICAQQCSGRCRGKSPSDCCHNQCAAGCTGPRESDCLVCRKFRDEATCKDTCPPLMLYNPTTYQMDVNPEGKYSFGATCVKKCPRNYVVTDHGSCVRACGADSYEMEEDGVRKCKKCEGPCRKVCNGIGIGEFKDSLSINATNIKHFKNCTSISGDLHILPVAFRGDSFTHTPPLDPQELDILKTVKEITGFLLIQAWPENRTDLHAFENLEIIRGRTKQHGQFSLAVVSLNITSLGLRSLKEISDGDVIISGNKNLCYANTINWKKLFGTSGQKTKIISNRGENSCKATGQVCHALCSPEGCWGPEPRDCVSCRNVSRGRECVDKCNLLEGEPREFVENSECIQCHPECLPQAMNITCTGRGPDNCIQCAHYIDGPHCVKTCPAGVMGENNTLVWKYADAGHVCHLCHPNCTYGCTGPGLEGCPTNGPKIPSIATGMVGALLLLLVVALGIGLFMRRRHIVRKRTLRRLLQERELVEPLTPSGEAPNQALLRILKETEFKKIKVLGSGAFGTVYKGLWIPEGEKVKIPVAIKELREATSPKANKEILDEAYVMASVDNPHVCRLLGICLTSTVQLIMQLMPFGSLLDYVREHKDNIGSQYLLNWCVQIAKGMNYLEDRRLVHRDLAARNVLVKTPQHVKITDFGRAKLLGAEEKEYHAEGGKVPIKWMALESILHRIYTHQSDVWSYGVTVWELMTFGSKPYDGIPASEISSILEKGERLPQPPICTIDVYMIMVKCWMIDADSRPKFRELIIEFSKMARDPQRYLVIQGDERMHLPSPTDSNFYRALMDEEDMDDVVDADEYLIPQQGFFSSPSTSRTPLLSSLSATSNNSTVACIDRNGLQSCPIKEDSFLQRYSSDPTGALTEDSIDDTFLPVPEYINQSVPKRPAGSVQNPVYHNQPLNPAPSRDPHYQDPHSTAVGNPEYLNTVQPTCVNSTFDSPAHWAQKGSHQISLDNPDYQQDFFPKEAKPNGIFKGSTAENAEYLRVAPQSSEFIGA
Method in brief: (§1)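 HTRF KinEASE-TK format: EGFR enzyme preincubated with compound 10 min at room temperature, then peptide substrate plus ATP added for 40 min. Detection with EDTA, XL665-streptavidin and Eu³⁺-labeled antibody for 1 h.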

[3] = target: T2, wild-type EGFR (Homo sapiens, UniProt P00533); assay: Enzymology experiment in vitro (HTRF/FRET kinase activity), wild-type EGFR; assay type: biochemical; conditions: HTRF KinEASE-TK, read-out: EGFR (WT) IC50
T2 construct: purchased Signalchem
T2 sequence (P00533 25-1210): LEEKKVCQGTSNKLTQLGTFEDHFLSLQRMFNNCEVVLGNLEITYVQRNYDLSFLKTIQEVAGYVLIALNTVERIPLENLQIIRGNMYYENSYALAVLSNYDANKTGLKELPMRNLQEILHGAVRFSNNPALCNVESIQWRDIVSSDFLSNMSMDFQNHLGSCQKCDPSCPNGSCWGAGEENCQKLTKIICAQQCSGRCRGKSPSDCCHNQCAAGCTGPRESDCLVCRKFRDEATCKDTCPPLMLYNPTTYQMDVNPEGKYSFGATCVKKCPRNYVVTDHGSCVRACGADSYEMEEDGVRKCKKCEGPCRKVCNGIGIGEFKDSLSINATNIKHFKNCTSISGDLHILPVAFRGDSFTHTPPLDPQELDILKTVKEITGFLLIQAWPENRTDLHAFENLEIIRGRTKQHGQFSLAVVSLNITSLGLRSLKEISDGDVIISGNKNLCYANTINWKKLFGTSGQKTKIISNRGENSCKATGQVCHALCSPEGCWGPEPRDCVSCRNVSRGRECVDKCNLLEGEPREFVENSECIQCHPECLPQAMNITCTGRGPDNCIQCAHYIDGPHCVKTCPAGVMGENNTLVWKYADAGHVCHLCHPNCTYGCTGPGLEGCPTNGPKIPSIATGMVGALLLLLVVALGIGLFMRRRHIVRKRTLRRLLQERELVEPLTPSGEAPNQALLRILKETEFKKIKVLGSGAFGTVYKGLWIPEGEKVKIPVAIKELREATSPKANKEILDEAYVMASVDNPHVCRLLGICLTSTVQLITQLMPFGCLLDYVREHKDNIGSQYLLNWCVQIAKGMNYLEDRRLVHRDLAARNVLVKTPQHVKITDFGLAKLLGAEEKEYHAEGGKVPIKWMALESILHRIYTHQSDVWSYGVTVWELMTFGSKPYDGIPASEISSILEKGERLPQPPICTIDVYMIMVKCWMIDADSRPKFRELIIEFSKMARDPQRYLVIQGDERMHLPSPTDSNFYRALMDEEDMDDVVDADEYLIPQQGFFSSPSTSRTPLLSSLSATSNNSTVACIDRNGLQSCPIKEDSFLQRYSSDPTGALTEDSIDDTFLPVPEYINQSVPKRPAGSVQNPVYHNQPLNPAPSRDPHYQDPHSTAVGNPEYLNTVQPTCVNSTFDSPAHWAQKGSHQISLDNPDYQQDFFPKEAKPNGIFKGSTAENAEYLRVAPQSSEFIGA
Method in brief: as §1

[4] = target: Ba/F3 L858R/T790M/C797S EGFR triple mutant cell line (Homo sapiens, UniProt P00533, T790M/C797S/L858R, cells depend on it); assay: Cell proliferation inhibition experiment (CellTiter-Glo), Ba/F3 L858R/T790M/C797S; assay type: cell-based; conditions: 72 hours, Cell Titer-Glo, read-out: Ba/F3 (L858R/T790M/C797S) IC50
Chain of Ba/F3 L858R/T790M/C797S EGFR triple mutant cell line (P00533 whole entry T790M/C797S/L858R): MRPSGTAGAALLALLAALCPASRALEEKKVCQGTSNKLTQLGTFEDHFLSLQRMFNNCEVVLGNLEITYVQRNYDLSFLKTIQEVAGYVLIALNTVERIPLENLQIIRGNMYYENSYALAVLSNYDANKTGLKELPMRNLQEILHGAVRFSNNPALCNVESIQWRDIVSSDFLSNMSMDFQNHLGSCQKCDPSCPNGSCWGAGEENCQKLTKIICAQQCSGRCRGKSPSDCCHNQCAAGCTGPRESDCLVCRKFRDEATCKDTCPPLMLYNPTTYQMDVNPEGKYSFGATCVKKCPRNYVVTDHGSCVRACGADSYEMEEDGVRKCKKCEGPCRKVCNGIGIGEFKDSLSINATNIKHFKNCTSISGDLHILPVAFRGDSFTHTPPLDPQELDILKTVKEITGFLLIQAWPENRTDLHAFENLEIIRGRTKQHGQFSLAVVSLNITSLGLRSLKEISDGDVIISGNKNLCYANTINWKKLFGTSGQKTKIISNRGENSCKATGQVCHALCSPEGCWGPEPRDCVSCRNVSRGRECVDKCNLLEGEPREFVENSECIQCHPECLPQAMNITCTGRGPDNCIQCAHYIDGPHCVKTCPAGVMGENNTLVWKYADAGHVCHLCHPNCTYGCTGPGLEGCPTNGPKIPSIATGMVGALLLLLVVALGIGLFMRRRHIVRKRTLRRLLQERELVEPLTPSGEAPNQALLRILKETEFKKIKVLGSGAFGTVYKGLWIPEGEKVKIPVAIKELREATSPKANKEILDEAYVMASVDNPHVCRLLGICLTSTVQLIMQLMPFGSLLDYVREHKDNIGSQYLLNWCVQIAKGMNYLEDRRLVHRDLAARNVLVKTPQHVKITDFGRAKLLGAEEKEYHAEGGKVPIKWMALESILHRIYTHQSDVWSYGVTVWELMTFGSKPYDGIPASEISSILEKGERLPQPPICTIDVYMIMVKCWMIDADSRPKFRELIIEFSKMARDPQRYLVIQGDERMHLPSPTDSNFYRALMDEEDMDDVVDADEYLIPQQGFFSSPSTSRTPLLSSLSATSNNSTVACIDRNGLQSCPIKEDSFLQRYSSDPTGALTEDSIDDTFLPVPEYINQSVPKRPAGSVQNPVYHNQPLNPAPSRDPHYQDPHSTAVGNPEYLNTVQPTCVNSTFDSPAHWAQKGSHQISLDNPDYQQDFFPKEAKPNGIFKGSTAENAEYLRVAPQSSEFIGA

[5] = target: Ba/F3 De119/T790M/C797S EGFR triple mutant cell line (Homo sapiens, UniProt P00533, T790M/C797S, cells depend on it, form not given); assay: Cell proliferation inhibition experiment (CellTiter-Glo), Ba/F3 De119/T790M/C797S; assay type: cell-based; conditions: Ba/F3 Del19/T790M/C797S EGFR triple mutant cells, 72 hours, Cell Titer-Glo; read-out: Ba/F3 (Del19/T790M/C797S) IC50
Chain of Ba/F3 De119/T790M/C797S EGFR triple mutant cell line (P00533 with tags, fused parts or gaps DEL746-750/T790M/C797S, form open): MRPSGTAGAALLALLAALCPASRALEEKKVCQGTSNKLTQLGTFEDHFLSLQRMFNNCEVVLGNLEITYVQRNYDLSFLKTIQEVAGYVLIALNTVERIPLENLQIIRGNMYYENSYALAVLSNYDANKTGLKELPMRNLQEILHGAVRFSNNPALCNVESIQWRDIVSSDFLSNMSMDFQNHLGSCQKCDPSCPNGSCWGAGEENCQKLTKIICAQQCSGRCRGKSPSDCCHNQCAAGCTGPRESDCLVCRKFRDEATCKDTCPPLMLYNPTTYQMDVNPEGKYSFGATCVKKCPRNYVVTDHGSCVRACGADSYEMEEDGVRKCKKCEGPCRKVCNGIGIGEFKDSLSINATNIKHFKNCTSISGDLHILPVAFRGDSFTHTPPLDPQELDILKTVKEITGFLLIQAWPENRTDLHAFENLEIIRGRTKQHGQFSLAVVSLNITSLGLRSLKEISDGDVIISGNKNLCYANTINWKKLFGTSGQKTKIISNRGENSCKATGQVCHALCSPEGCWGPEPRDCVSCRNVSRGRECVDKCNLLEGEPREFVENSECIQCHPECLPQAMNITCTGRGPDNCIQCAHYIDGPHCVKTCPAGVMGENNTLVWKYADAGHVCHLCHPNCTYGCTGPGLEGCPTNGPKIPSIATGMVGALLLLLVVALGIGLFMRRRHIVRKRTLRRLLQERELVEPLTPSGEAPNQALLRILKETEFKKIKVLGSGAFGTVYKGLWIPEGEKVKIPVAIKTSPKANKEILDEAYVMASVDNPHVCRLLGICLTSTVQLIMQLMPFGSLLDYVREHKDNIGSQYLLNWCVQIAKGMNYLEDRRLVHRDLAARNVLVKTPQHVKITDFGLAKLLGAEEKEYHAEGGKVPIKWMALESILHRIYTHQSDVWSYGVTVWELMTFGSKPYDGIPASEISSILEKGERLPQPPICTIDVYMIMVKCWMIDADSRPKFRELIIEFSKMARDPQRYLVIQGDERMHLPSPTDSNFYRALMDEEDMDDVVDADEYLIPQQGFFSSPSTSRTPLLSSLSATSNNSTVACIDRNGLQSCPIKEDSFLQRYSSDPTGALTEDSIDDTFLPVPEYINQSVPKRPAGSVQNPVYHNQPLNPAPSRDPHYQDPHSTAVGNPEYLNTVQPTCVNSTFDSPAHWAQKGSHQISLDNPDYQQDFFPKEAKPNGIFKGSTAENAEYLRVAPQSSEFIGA

Row | SMILES | IC50 [1] | IC50 [2] | IC50 [3] | GI50 [4] | GI50 [5]
1 | Cn1cc(-c2cc(Nc3ncc(Br)c(Nc4ccccc4P(C)(C)=O)n3)c(OCC(F)(F)F)nc2N2CCOCC2)cn1 [compound 123] | 8840 nM | 1.12 nM | 121 nM | 82 nM | 24.3 nM
2 | COc1cc(N2CCC(F)CC2)c(-c2cnn(C)c2)cc1Nc1ncc(Br)c(Nc2ccc3nccnc3c2P(C)(C)=O)n1 [compound 124] | 516 nM | 1.2 nM | 8.35 nM | 7.93 nM | 3.93 nM
3 | COc1cc(N2CCOCC2)c(-c2cnn(C)c2)cc1Nc1ncc(Br)c(Nc2ccccc2NS(=O)(=O)C2CC2)n1 [compound 125] | 490 nM | 0.53 nM | 23.8 nM | 14.4 nM | 5.87 nM
4 | COc1cc(N2CCOCC2)c(-c2cnn(C)c2)cc1Nc1ncc(Br)c(Nc2ccc3nccnc3c2NS(C)(=O)=O)n1 [compound 126] | 286 nM | 0.15 nM | 1.55 nM | 3.81 nM | 0.93 nM
5 | COc1cc(N2CCC(OC)C2)c(-c2cnn(C)c2)cc1Nc1ncc(Br)c(Nc2ccc3nccnc3c2P(C)(C)=O)n1 (stereo not shown) [compound 128] | 397 nM | 0.53 nM | 6.83 nM | 11.9 nM | 2.86 nM
6 | COCCN1CCN(c2cc(OC)c(Nc3ncc(Br)c(Nc4ccccc4NS(C)(=O)=O)n3)cc2-c2cnn(C)c2)CC1 [compound 132] | 270 nM | 0.07 nM | 5.71 nM | 30 nM | 2.45 nM
7 | COc1cc(N2CCOC(C)C2)c(-c2cnn(C)c2)cc1Nc1ncc(Br)c(Nc2ccc3nccnc3c2P(C)(C)=O)n1 (stereo not shown) [compound 134] | 316 nM | 0.21 nM | 3.57 nM | 7.82 nM | 1.02 nM
8 | COc1cc(N2CCN(CCF)CC2)c(-c2cnn(C)c2)cc1Nc1ncc(Br)c(Nc2cc3c(cc2P(C)(C)=O)CC3)n1 [compound 138] | 630 nM | 0.53 nM | 30.7 nM | 11.9 nM | 9.31 nM
9 | COc1cc(N2CCOCC2)c(-c2ccn(C)n2)cc1Nc1ncc(Br)c(Nc2ccc3nccnc3c2P(C)(C)=O)n1 [compound 140] | 3670 nM | 5.44 nM | 94.6 nM | 62 nM | 29.8 nM
10 | [2H]C1([2H])OC([2H])([2H])C([2H])([2H])N(c2cc(OC)c(Nc3ncc(C)c(Nc4ccc5nccnc5c4P(C)(C)=O)n3)cc2-c2cnn(C)c2)C1([2H])[2H] [compound 141] | 194 nM | 0.18 nM | 1.14 nM | 5.16 nM | 2.26 nM
11 | COc1cc(N2CCC(C)(O)CC2)c(-c2cnn(C)c2)cc1Nc1ncc(Br)c(Nc2ccc3nccnc3c2P(C)(C)=O)n1 [compound 142] | 196 nM | 0.25 nM | 1.16 nM | 2.89 nM | 0.34 nM
12 | [2H]C([2H])([2H])N(c1cc(OC)c(Nc2ncc(C)c(Nc3ccc4nccnc4c3P(C)(C)=O)n2)cc1-c1cnn(C)c1)C([2H])([2H])[2H] [compound 143] | 420 nM | 0.41 nM | 1.75 nM | 10.2 nM | 3.23 nM
13 | [2H]C([2H])([2H])N(c1cc(OC)c(Nc2ncc(Br)c(Nc3ccc4nccnc4c3P(C)(C)=O)n2)cc1-c1cnn(C)c1)C([2H])([2H])[2H] [compound 145] | 203 nM | 0.31 nM | 3.48 nM | 2.41 nM | 1.7 nM
14 | COc1cc(N2CCC3(CN(C)CCO3)C2)c(-c2cnn(C)c2)cc1Nc1ncc(Br)c(Nc2ccc3nccnc3c2P(C)(C)=O)n1 (stereo not shown) [compound 146] | 179 nM | 0.38 nM | 8.43 nM | 5.47 nM | 1.44 nM
15 | COc1cc(N2CCOCC2)c(-c2cnn(C)c2)cc1Nc1ncc(Br)c(Nc2cc3c(cc2N(C)S(C)(=O)=O)CC3)n1 [compound 147, N-(4-((5-bromo-2-((2-methoxy-5-(1-methyl-1H-pyrazol-4-yl)-4-morpholinylphenyl)amino)pyrimidin-4-yl)amino)bicyclo[4.2.0]octa-1,3,5-trien-3-yl)-N-methylmethanesulfonamide] | 475 nM | 1.16 nM | 53 nM | 2.93 nM | 1.3 nM

Now those with a lower IC50 [1], led by results:

Row | IC50 [1] | IC50 [2] | IC50 [3] | GI50 [4] | GI50 [5] | SMILES
16 | 150 nM | 0.25 nM | 0.67 nM | 6.16 nM | 1.61 nM | COc1cc(N2CCC(O)CC2)c(-c2cnn(C)c2)cc1Nc1ncc(Br)c(Nc2ccc3nccnc3c2P(C)(C)=O)n1 [compound 121, (6-((5-bromo-2-((4-(4-hydroxypiperidin-1-yl)-2-methoxy-5-(1-methyl-1H-pyrazol-4-yl)phenyl)amino]pyrimidin-4-yl)amino)quinoxalin-5-yl)dimethylphosphine oxide]
17 | 37.2 nM | 0.62 nM | 3.42 nM | 9.96 nM | 2.07 nM | CN(C)CCN1CCOc2c(Nc3ncc(Br)c(Nc4ccc5nccnc5c4P(C)(C)=O)n3)cc(-c3cnn(C)c3)cc21 [compound 122]
18 | 170 nM | 0.24 nM | 2.83 nM | 4.18 nM | 0.59 nM | COC[C@@H]1CN(c2cc(OC)c(Nc3ncc(Br)c(Nc4ccc5nccnc5c4P(C)(C)=O)n3)cc2-c2cnn(C)c2)CCO1 [compound 127]
19 | 73.5 nM | 0.05 nM | 1.44 nM | 9 nM | 1 nM | COc1cc(N2CCN3CCCC3C2)c(-c2cnn(C)c2)cc1Nc1ncc(Br)c(Nc2ccc3nccnc3c2P(C)(C)=O)n1 (stereo not shown) [compound 130]
20 | 67.8 nM | 0.12 nM | 2.57 nM | 7.17 nM | 0.6 nM | COc1cc(N2CCN3CCCCC3C2)c(-c2cnn(C)c2)cc1Nc1ncc(Br)c(Nc2ccc3nccnc3c2P(C)(C)=O)n1 (stereo not shown) [compound 131]
21 | 82.8 nM | 0.15 nM | 0.78 nM | 2.85 nM | 0.64 nM | COc1cc(N2CCC3(CCN(CCF)CC3)CC2)c(-c2cnn(C)c2)cc1Nc1ncc(Br)c(Nc2ccc3nccnc3c2P(C)(C)=O)n1 [compound 133, (6-((5-bromo-2-((4-(9-(2-fluoroethyl)-3,9-diazaspiro[5.5]undecan-3-yl)-2-methoxy-5-(1-methyl-1H-pyrazol-4-yl)phenyl)amino)pyrimidin-4-yl)amino)quinoxalin-5-yl)dimethylphosphine oxide]
22 | 61 nM | 0.24 nM | 0.57 nM | 2.33 nM | 1.59 nM | COCCN1CCC2(CC1)CCN(c1cc(OC)c(Nc3ncc(Br)c(Nc4ccc5nccnc5c4P(C)(C)=O)n3)cc1-c1cnn(C)c1)CC2 [compound 139]
23 | 84 nM | 0.66 nM | 2.77 nM | 1.91 nM | 0.35 nM | COc1cc(N2CCC3(CC2)CN(C)CCO3)c(-c2cnn(C)c2)cc1Nc1ncc(Br)c(Nc2ccc3nccnc3c2P(C)(C)=O)n1 [compound 144, (6-((5-bromo-2-((2-methoxy-5-(1-methyl-1H-pyrazol-4-yl)-4-(4-methyl-1-oxa-4,9-diazaspiro[5.5]undecan-9-yl)phenyl)amino)pyrimidin-4-yl)amino)quinoxalin-5-yl)dimethylphosphine oxide]
